From PubChem BioAssay (NCI) come the findings set out here.

Some test systems named below: A549 NSCLC; DU-145 prostate; SK-OV-3 ovarian; SK-MEL-28 melanoma; KM12 colon; SF-539 CNS; HS 578T breast; A498 renal; NCI-H226 lung.
Test in all cases: inhibition of tumour cell growth, NCI panel, 48 h

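Five compound concentrations were applied to cells in 96-well plates for 48 hours; endpoints were derived by simple linear interpolation of the resulting dose-response curve. GI50: concentration for 50% inhibition of growth. At the TGI there is no net growth.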

In the case of `COc1cc2c(cc1OC)-c1ncc3cc(OC)c(OC)c(OC)c3c1C2`, the GI50 was 32.1 µM in the assay on A549 NSCLC; 21.7 µM with DU-145 prostate; 33 µM in the assay with SK-OV-3 ovarian; 46.7 µM with SK-MEL-28 melanoma; 17.9 µM in the assay on KM12 colon; 14 µM in the assay with SF-539 CNS. For the same compound, the GI50 in the assay with HS 578T breast was 4.11 µM. The TGI with A549 NSCLC was above 100 µM; with DU-145 prostate it was above 100 µM; in the assay with SK-OV-3 ovarian, above 100 µM; in the assay with SK-MEL-28 melanoma, above 100 µM; in the assay on KM12 colon, 95.1 µM; with SF-539 CNS, 34 µM. The compound also displayed a TGI in the assay on HS 578T breast of 27.2 µM.
With `CC(C)(C)C1CCC(=O)C(C(O)CC2CC(=O)N(c3ccccc3)C(=O)C2)C1` (configuration not stated), the TGI in the assay with A549 NSCLC, with SK-OV-3 ovarian, in the assay with A498 renal, in the assay with SK-MEL-28 melanoma, with NCI-H226 lung and in the assay on KM12 colon was above 100 µM throughout. In the assay with SF-539 CNS, this compound yielded a TGI above 100 µM.
As to `COc1c(Cl)[c]([Hg][O]C(C)=O)c(NCC(C)=O)c(OC)[c]1[Hg][O]C(C)=O`, the GI50 with A549 NSCLC is 81.6 µM; in the assay on SK-OV-3 ovarian, 24.5 µM; with A498 renal, 26.7 µM; in the assay with SK-MEL-28 melanoma it was 13.3 µM; in the assay with NCI-H226 lung it was 18.7 µM; with KM12 colon it was 31.7 µM. In addition, in the assay on SF-539 CNS, the GI50 is 2.92 µM. The TGI in the assay with A549 NSCLC is above 100 µM; with SK-OV-3 ovarian it was 45.6 µM; in the assay with A498 renal, 71 µM; in the assay on SK-MEL-28 melanoma, 26.2 µM; in the assay with NCI-H226 lung, 43.1 µM; in the assay with KM12 colon it was above 100 µM. This compound also yielded a TGI in the assay with SF-539 CNS of 13.3 µM.
Take `CC(C)C1NC(=O)[C@H](C)OC(=O)[C@@H](C(C)C)NC(=O)[C@@H](C)OC(=O)C(C(C)C)NC(=O)[C@H](C)OC1=O` (some centres not stated): the TGI with A549 NSCLC, with SK-OV-3 ovarian, in the assay with A498 renal, in the assay on SK-MEL-28 melanoma, in the assay with NCI-H226 lung and in the assay with KM12 colon was above 100 µM in each case. The TGI in the assay with SF-539 CNS was above 81.7 µM.
With `CCOc1ccc(N=Cc2ccc3ccccc3n2)cc1`, the TGI with A549 NSCLC, in the assay with SK-OV-3 ovarian, in the assay on A498 renal, with SK-MEL-28 melanoma, in the assay on NCI-H226 lung and in the assay with KM12 colon was above 100 µM each time. For the same compound, in the assay with SF-539 CNS, the TGI was above 100 µM.
`CCCCCN(CCCCC)C(=O)[C@H](CCC(=O)OCc1ccccc1)NC(=O)c1cc2ccccc2[nH]1`: the TGI with A549 NSCLC, in the assay on SK-OV-3 ovarian, in the assay with A498 renal, in the assay on SK-MEL-28 melanoma, in the assay with NCI-H226 lung and in the assay on KM12 colon was above 100 µM each time. Besides, in the assay on SF-539 CNS, the TGI was above 100 µM.
For the compound `CCC(C)(C)NS(=O)(=O)c1ccccc1`, the TGI in the assay with A549 NSCLC, in the assay with SK-OV-3 ovarian, in the assay with A498 renal, with SK-MEL-28 melanoma, in the assay with KM12 colon and in the assay on SF-539 CNS was above 100 µM throughout.
With `COc1ccc2c(c1OC)C(C=C(c1ccccc1)c1ccccc1)CN(C)C2` (configuration not stated), the TGI with A549 NSCLC is 88.2 µM; with SK-OV-3 ovarian, above 100 µM; in the assay on A498 renal, 65 µM; in the assay on SK-MEL-28 melanoma, 57.9 µM; with NCI-H226 lung it was 98.6 µM; in the assay on KM12 colon it was 48.9 µM. In the assay on SF-539 CNS, the TGI stood at 56.6 µM.
With `C/C(=N\NS(=O)(=O)c1c(C)cc(C)cc1C)c1ccc[n+]([O-])n1`, the TGI was above 100 µM in the assay on A549 NSCLC; above 100 µM in the assay with SK-OV-3 ovarian; 86.6 µM in the assay on A498 renal; 27.6 µM in the assay with SK-MEL-28 melanoma; above 100 µM with KM12 colon; 27.7 µM with SF-539 CNS.
On to `COC(=O)c1ccc(/C=C/S(=O)(=O)c2ccccc2)cc1`, for which the TGI in the assay with A549 NSCLC, in the assay on SK-OV-3 ovarian, in the assay on A498 renal, with SK-MEL-28 melanoma, with NCI-H226 lung and with KM12 colon was above 100 µM in each case. This compound registered a TGI in the assay on SF-539 CNS above 100 µM.
On to `CCOC(=O)NC(=O)c1cn(C2OC(COC(=O)CCCCCCCCC(=O)OCC3OC(n4cc(C(=O)NC(=O)OCC)c(=O)[nH]c4=O)C4OC(C)(C)OC34)C3OC(C)(C)OC32)c(=O)[nH]c1=O` (configuration not stated), for which the TGI in the assay on A549 NSCLC, in the assay on A498 renal, in the assay on SK-MEL-28 melanoma, with NCI-H226 lung, with KM12 colon and in the assay with SF-539 CNS was above 100 µM throughout.
As to `N/C(=N\N=C\c1ccc(O)c(O)c1)NO`, the TGI in the assay with A549 NSCLC, in the assay on SK-OV-3 ovarian, in the assay on A498 renal, in the assay on SK-MEL-28 melanoma, with NCI-H226 lung and in the assay on KM12 colon was above 100 µM each time. Also, the TGI with SF-539 CNS was above 100 µM.
In the case of `Cn1cc2ccccc2c1-c1nc(F)nc(Nc2ccc(N)cc2)n1`, the TGI in the assay on A549 NSCLC was 65.3 µM; in the assay with SK-OV-3 ovarian, 33.8 µM; in the assay on A498 renal it was 21.6 µM; in the assay with SK-MEL-28 melanoma, 30.6 µM; in the assay on NCI-H226 lung it was 32.7 µM; in the assay on KM12 colon, 41.9 µM. The TGI in the assay with SF-539 CNS was 35.1 µM.
For the compound `CC1=CC2=C(C#N)C(=O)OC2(C)C(c2ccccc2)C1` (configuration not stated), the TGI in the assay with A549 NSCLC, with DU-145 prostate, with SK-OV-3 ovarian, in the assay with A498 renal, with SK-MEL-28 melanoma and in the assay with NCI-H226 lung was above 100 µM each time. Besides, the TGI in the assay on KM12 colon, in the assay with SF-539 CNS and in the assay with HS 578T breast was above 100 µM each time.
As for `Cc1ccc(-c2cc(=O)c3cc(C)c(C)c(C(=O)O)c3o2)cc1[N+](=O)[O-]`, the TGI with A549 NSCLC, with SK-OV-3 ovarian, in the assay with SK-MEL-28 melanoma, in the assay on NCI-H226 lung, with KM12 colon and with SF-539 CNS was above 100 µM each time.
For the compound `CC(CCC(=O)O)c1ccc(Br)cc1` (configuration not stated), the TGI in the assay on A549 NSCLC, with SK-OV-3 ovarian, in the assay with SK-MEL-28 melanoma, in the assay with NCI-H226 lung and in the assay on KM12 colon was above 100 µM throughout.
